Measurements from US8524717B2, “Oxidase inhibitors and their use” (Oryzon Genomics, S.A., priority 2008, dated 2013).

Columns and labels:
MAO-A = MAO-A (Homo sapiens (Human), UniProt P21397); experiment: Monoamine oxidase assay (kynuramine to 4-hydroxyquinoline fluorescence), MAO-A; assay type: biochemical; conditions: for Ki: Table 1
Method: (§1) Human recombinant monoamine oxidase proteins MAO-A and MAO-B were purchased from Sigma Aldrich. MOAs catalyze the oxidative deamination of 1°, 2° and 3° amines. In order to monitor MAO enzymatic activities and/or their inhibition rate by inhibitor(s) of interest, a fluorescent-based (inhibitor)-screening assay was set up. 3-(2-Aminophenyl)-3-oxopropamamine (kynuramine dihydrobromide, Sigma Aldrich), a non fluorescent compound was chosen as a substrate. Kynuramine is a non-specific substrate for both MAOs activities. While undergoing oxidative deamination by MAO activities, kynuramine is converted into 4-hydroxyquinoline (4-HQ), a resulting fluorescent product.
(§2) The monoamine oxidase activity was estimated by measuring the conversion of kynuramine into 4-hydroxyquinoline. Assays were conducted in 96-well black plates with clear bottom (Corning) in a final volume of 100 μL. The assay buffer was 100 mM HEPES, pH 7.5. Each experiment was performed in triplicate within the same experiment.
(§3) The oxidative deamination of the substrate was stopped by adding 50 μL (v/v) of NaOH 2N.
(§4) The Ki of each inhibitor was measure at Vmax/2.

MAO-B = MAO-B (Homo sapiens (Human), UniProt P27338); experiment: Monoamine oxidase assay (kynuramine to 4-hydroxyquinoline fluorescence), MAO-B; assay type: biochemical; conditions: Table 1
Method: as §1, §2, §3, §4

[1] = target: Human recombinant LSD1 protein (Homo sapiens (Human), UniProt O60341); experiment: LSD1 demethylase inhibition assay (Amplex Red peroxide/peroxidase-coupled, di-methylated H3-K4 peptide); conditions: for ability to inhibit LSD1: preliminary assays, result in words; for LSD1 percent at fixed concentration: at 20 μM
Method: The demethylase activity was estimated, under aerobic conditions, by measuring the release of H2O2 produced during the catalytic process, using the Amplex® Red peroxide/peroxidase-coupled assay kit (Invitrogen).
Tranylcypromine (Biomol International) was used as a control for inhibition. Within the experiment, each concentration of inhibitor was tested in triplicate. […] The enzymatic reactions were set up in a 50 mM sodium phosphate, pH 7.4 buffer. […] A 1 μM H2O2 solution was used as a control of the kit efficiency. The conversion of the Amplex® Red reagent to resorufin due to the presence of H2O2 in the assay, was monitored by fluorescence (excitation at 540 nm, emission at 590 nm) using a microplate reader (Infinite 200, Tecan). Arbitrary units were used to measure level of H2O2 produced in the absence and/or in the presence of inhibitor.
The Ki of each inhibitor was estimated at half of the maximum activity.

Sequence of MAO-A (P21397 whole entry): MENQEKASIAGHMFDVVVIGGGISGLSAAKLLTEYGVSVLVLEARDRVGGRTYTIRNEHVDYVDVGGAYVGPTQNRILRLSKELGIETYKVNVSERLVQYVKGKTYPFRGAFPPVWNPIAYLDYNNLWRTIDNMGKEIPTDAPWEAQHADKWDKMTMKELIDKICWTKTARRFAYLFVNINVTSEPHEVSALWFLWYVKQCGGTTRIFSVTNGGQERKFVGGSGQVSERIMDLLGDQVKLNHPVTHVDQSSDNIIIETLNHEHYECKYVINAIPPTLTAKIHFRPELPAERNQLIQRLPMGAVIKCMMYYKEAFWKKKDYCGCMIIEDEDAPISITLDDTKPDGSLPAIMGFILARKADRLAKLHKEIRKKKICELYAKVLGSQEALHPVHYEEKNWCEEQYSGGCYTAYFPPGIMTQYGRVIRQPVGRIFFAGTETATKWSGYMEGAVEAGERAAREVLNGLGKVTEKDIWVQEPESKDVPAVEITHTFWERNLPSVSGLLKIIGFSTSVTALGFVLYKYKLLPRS
Sequence of MAO-B (P27338 whole entry): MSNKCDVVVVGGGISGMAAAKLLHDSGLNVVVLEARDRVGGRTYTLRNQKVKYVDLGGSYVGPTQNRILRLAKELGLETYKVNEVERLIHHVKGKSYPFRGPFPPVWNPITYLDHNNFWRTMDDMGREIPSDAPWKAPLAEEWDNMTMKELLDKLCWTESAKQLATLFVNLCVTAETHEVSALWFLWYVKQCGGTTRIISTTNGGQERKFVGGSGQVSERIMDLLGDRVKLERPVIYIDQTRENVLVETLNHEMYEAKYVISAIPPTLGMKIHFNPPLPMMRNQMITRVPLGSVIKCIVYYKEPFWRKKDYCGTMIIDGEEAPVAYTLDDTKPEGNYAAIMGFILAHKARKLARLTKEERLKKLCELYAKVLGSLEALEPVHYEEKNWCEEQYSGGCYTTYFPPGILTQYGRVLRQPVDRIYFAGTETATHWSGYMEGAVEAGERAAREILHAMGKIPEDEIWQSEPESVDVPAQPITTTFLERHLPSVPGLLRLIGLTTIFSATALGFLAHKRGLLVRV

| Structure (SMILES) | Ki (MAO-A) [µM] | Ki (MAO-B) [µM] | Ki [1] [µM] | ability to inhibit LSD1 [1] | LSD1 percent at fixed concentration [1] [% at 20] | IC50 value for MAO-A (MAO-A) |
| --- | --- | --- | --- | --- | --- | --- |
| O=C(CN[C@H]1C[C@@H]1c1ccccc1)Nc1ccc(F)cc1 (relative stereo) [Example 8, N-(4-fluorophenyl)-2-{[(trans)-2-phenylcyclopropyl]amino}acetamide] | > 50 | > 50 | > 50 | did not inhibit LSD1 | – | – |
| CN(C)CCNC(=O)CN[C@H]1C[C@@H]1c1ccccc1 (relative stereo) [Example 13, N-(2-(dimethylamino)ethyl)-2-((trans)-2-phenylcyclopropylamino)acetamide] | > 40 | > 40 | – | – | – | – |
| CN(CC(=O)NC1CC1)[C@H]1C[C@@H]1c1ccccc1 (relative stereo) [Example 19, N-cyclopropyl-2-{methyl[(trans)-2-phenylcyclopropyl]amino}acetamide] | 74 | > 100 | – | – | 34 | – |
| CN(CC(N)=O)[C@H]1C[C@@H]1c1ccccc1 (relative stereo) [Example 20, 2-{methyl[(trans)-2-phenylcyclopropyl]amino}acetamide] | > 100 | > 100 | – | – | 40 | – |
| CC(C)(C)NC(=O)CN(Cc1ccccc1)[C@H]1C[C@@H]1c1ccccc1 (relative stereo) [Example 21, 2-(benzyl((trans)-2-phenylcyclopropyl)amino)-N-tert-butylacetamide] | – | – | > 100 | did not inhibit LSD1 | – | – |
| CN1CCN(C(=O)CN[C@H]2C[C@@H]2c2ccc(OCc3ccccc3)cc2)CC1 (relative stereo) [Example 26, 2-((trans)-2-(4-(benzyloxy)phenyl)cyclopropylamino)-1-(4-methylpiperazin-1-yl)ethanone] | 11 | – | – | – | – | low micromolar range |
